# Experimental data: patent US7812183B2, “Benzopyran derivatives as potassium channel openers” (Janssen Pharmaceutica NV, priority 2005, dated 2010)
# Target: T1, KATP channels (Homo sapiens, UniProt O60706+Q14654)
# T1 construct: TE671 human medulloblastoma cells were obtained from ATCC; host or cells: TE671 human medulloblastoma cells
# Test: Potassium Channel Assay (FLIPR membrane potential, TE671 cells)
# Type: cell-based
# Settings: TE671 human medulloblastoma cells, Membrane Potential Assay Dye, room temperature, hyperpolarization from KATP channel opening
# Experimental: TE671 human medulloblastoma cells were obtained from ATCC and grown in Dulbecco's modified Eagle's medium (DMEM) supplemented with 10% fetal bovine serum, 100 U/ml penicillin and 100 U/ml streptomycine.
# The day before testing, the cells were plated in black 96-well plates at 50K/well. On the day of testing, the growth media was removed, then 100 μl of FLIPR buffer (20 mM HEPES, 120 mM NaCl, 2 mM KCl, 2 mM CaCl2, 1 mM MgCl2, 5 mM Glucose) and 100 μl of Membrane Potential Assay Dye (Molecular Devices) dissolved in FLIPR buffer were added to each well. The cells were incubated at room temperature for 15 to 30 min.
# The effect of test compounds on KATP channels were evaluated on a fluorometric imaging plate reader (FLIPR, Molecular Devices) at room temperature. After a baseline period, 50 μl of 5× stock solution of test compound prepared in FLIPR buffer was added and fluorescent change was monitored for 3 minutes. After this reading, glyburide, a KATP channel blocker, was added to a final concentration of 5 μM to check the specificity of the test compound as a KATP channel openers. Hyperpolarization resulting from KATP channel opening was observed as a decrease in fluorescent intensity.
# Representative compounds of the present invention were tested according to the procedure described above, with results as listed in Table 7, below.
# T1 sequence (O60706 1-1549 isoform O60706-2): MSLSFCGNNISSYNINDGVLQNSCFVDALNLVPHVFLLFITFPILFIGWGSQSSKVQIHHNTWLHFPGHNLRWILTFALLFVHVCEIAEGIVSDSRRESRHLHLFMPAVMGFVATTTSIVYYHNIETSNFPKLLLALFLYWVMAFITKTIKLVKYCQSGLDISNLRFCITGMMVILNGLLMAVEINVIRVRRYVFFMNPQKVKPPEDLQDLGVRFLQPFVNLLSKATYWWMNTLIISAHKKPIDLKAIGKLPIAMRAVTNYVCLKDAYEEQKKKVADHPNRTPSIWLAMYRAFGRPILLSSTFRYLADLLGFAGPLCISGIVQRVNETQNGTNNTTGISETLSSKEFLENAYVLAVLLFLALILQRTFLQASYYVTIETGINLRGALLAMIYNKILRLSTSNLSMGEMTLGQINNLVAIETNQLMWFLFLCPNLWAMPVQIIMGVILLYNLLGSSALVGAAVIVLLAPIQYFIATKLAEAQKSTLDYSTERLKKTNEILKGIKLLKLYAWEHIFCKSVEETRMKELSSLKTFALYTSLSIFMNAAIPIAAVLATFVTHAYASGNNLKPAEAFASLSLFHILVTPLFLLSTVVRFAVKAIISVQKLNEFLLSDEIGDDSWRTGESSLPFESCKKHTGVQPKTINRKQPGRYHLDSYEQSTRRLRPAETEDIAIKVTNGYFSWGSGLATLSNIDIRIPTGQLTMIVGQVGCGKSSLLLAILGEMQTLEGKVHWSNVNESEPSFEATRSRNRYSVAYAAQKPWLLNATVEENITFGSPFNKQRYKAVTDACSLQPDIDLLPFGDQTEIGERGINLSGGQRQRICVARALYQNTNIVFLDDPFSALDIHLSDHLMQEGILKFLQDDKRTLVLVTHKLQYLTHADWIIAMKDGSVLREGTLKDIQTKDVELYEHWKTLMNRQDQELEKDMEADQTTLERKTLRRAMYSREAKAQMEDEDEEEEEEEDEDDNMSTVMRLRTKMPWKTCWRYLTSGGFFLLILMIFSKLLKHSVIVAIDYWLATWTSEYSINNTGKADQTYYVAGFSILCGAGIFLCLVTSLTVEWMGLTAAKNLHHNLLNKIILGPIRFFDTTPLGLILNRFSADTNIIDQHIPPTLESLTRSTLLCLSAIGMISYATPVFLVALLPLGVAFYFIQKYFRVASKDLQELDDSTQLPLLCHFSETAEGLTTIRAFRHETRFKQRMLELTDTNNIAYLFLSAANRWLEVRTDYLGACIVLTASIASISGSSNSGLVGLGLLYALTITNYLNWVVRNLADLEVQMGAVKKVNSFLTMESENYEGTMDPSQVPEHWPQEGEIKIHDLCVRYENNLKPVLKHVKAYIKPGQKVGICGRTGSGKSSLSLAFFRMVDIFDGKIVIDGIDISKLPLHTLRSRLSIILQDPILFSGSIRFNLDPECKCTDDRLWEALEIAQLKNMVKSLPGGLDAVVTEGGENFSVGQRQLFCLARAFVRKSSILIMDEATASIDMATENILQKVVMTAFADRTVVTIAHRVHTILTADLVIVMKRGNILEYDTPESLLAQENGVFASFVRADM
# T1 sequence (Q14654 whole entry): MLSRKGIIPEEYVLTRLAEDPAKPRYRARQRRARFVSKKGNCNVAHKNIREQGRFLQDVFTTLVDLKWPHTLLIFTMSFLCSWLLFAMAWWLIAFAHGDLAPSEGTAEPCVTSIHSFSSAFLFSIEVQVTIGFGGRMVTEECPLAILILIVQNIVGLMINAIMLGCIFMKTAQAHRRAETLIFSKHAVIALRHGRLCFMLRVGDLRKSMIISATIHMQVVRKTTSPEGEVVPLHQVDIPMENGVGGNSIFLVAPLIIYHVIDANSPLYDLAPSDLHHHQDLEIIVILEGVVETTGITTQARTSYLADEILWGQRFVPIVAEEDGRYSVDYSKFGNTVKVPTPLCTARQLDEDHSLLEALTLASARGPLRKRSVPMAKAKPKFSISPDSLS
row,Structure (SMILES),EC50 [µM]
1,"CC1(C)Oc2ccncc2[C@@H](n2nccc2-c2ccc(Cl)cc2)[C@@H]1O (racemic) [Compound 108, 4-[5-(4-Chloro-phenyl)-pyrazol-1-yl]-2,2-dimethyl-3,4-dihydro-2H-pyrano[3,2-c]pyridin-3-ol]",4.33
2,"CC1(C)Oc2ccncc2[C@@H](Oc2ccn(-c3ccc(Cl)cc3)n2)[C@@H]1O (racemic) [Compound 109, 4-[1-(4-Chloro-phenyl)-1H-pyrazol-3-yloxy]-2,2-dimethyl-3,4-dihydro-2H-pyrano[3,2-c]pyridin-3-ol]",26.4
3,"CC1(C)Oc2ccncc2[C@@H](n2ccnc2-c2ccc(Cl)cc2)[C@@H]1O (racemic) [Compound 111, 4-[2-(4-Chloro-phenyl)-imidazol-1-yl]-2,2-dimethyl-3,4-dihydro-2H-pyrano[3,2-c]pyridin-3-ol]",> 30
4,"CC1(C)Oc2ccncc2[C@@H](n2nc(-c3ccc(Cl)cc3)ccc2=O)[C@@H]1O (racemic) [Compound 112, 6-(4-Chloro-phenyl)-2-(3-hydroxy-2,2-dimethyl-3,4-dihydro-2H-pyrano[3,2-c]pyridin-4-yl)-2H-pyridazin-3-one]",29.8
5,"CC1(C)Oc2ccncc2[C@@H](n2cncc2-c2ccc(Cl)cc2)[C@@H]1O (racemic) [Compound 113, 4-[5-(4-Chloro-phenyl)-imidazol-1-yl]-2,2-dimethyl-3,4-dihydro-2H-pyrano[3,2-c]pyridin-3-ol]",13.8
6,"CC1(C)Oc2ccc(C#N)cc2[C@@H](Nc2nc(=O)c3ccccc3[nH]2)[C@@H]1O (racemic) [Compound 118, 3-Hydroxy-2,2-dimethyl-4-(4-oxo-1,4-dihydro-quinazolin-2-ylamino)-chroman-6-carbonitrile]",7.8
7,"CC1(C)Oc2ccc(C#N)cc2[C@@H](Sc2nc3cc(Cl)ccc3[nH]2)C1O (stereo in doubt) [Compound 29, (3S,4R)-4-(5-Chloro-1H-benzoimidazol-2-ylsulfanyl)-3-hydroxy-2,2-dimethyl-chroman-6-carbonitrile]",6.18
8,"CC1(C)Oc2ccc(C#N)cc2[C@@H](SC2=NCCO2)[C@@H]1O (stereo in doubt) [Compound 68, 4-(4,5-Dihydro-oxazol-2-ylsulfanyl)-3-hydroxy-2,2-dimethyl-chroman-6-carbonitrile]",3.45
9,"CC1(C)Oc2ccc(C#N)cc2[C@@H](S(=O)(=O)c2ncc[nH]2)C1O (stereo in doubt) [Compound 71, (3S,4R)-3-Hydroxy-4-(1H-imidazole-2-sulfonyl)-2,2-dimethyl-chroman-6-carbonitrile]",> 30
10,"CC1(C)Oc2ccc(C#N)cc2[C@@H](n2nccc2-c2ccc(Cl)cc2)[C@@H]1O [Compound 10, 4R-[5-(4-Chloro-phenyl)-pyrazol-1-yl]-3S-hydroxy-2,2-dimethyl-chroman-6-carbonitrile]",1.5
11,"CC1(C)Oc2ccc(C#N)cc2[C@@H](Oc2noc3cc(Cl)ccc23)[C@@H]1O [Compound 22, 4R-(6-Chloro-benzo[d]isoxazol-3-yloxy)-3S-hydroxy-2,2-dimethyl-chroman-6-carbonitrile]",0.26
12,"CC1(C)Oc2ccc(C#N)cc2[C@@H](Oc2noc3ccccc23)[C@@H]1O [Compound 23, (3S,4R)-4-(Benzo[d]isoxazol-3-yloxy)-3-hydroxy-2,2-dimethyl-chroman-6-carbonitrile]",6.94
13,"CC1(C)Oc2ccc(C#N)cc2[C@@H](N2C(=O)C(=O)c3cc(Cl)ccc32)[C@@H]1O [Compound 24, (3S,4R)-4-(5-Chloro-2,3-dioxo-2,3-dihydro-indol-1-yl)-3-hydroxy-2,2-dimethyl-chroman-6-carbonitrile]",3.64
14,"CC1(C)Oc2ccc(C#N)cc2[C@@H](N2C(=O)c3ccncc3C2=O)[C@@H]1O [Compound 26, 4R-(1,3-Dioxo-1,3-dihydro-pyrrolo[3,4-c]pyridin-2-yl)-3S-hydroxy-2,2-dimethyl-chroman-6-carbonitrile]",6.04
15,CC1(C)Oc2ccc(C#N)cc2[C@@H](OP(=O)(c2ccccc2)c2ccccc2)[C@@H]1O [Compound 27],> 30
